Test results: patent US9861623B1, “Combination treatment of RAS-positive diseases with PDE-δ inhibitor and direct autophagy inhibitor” (Macau University of Science and Technology, priority 2016, dated 2018)

Experiments:
Type in all cases: cell-based
[1] = tested on: LC3-II; assay: Western blot of LC3-I to LC3-II conversion (autophagy); settings: 24 h; for accumulation of LC3-II under deltarasin: A549 cells
Protocol: (§1) Cells were washed twice with cold PBS and then lysed in RIPA lysis buffer containing protease and phosphatase inhibitors. Protein concentration of the cell lysate was measured by using the Bio-Rad protein assay kit (Bio-Rad, Philadelphia, Pa., USA). After equalizing the protein concentrations of the samples, 5×laemmli buffer was added and boiled at 100° C. for 5 min. Equal amounts of protein (20-40 μg per lane) were separated with a 10% SDS-PAGE gel, then the separated proteins were transferred to a nitrocellulose (NC) membrane, which was then exposed to 5% non-fat dry milk in TBS contains 0.1% Tween 20 (0.1% TBST) for 1 h at room temperature with constant agitation, followed by overnight incubation at 4° C. with primary anti-bodies. After washing 3 times with TBST, the membranes were incubated with secondary rabbit or mouse fluorescent antibodies, then the signal intensity of the membranes was detected by anLI-COR Odessy scanner (Belfast, Me., USA). All primary antibodies were diluted in 1:1000, while their recommended secondary antibodies were diluted in 1:10000.

[2] = tested on: A549 cells; assay: GFP-LC3 puncta formation in transfected A549 cells; settings: 24 h
Protocol: GFP-LC3 expression vector was utilized to monitor and quantify the induction of autophagy following the 3rd autophagy guidelines. A549 cells were seeded at a density of 2×10^5 cells/well in 6-well plates, according to the manufacturers instructions. Lipofectamine™ 2000 was incubated with GFP-LC3 in Opti-MEM reduced serum medium for 20 min at room temperature. The mixture was added drop by drop to the cells and then incubated for 4-6 h. The DNA/Lipofectamine™ 2000 medium was replaced by fresh medium and cultured for another 24 h. […] The percentage of autophagic cells was calculated by counting the number of the cells showing increased punctuate pattern of LC3 fluorescence (≧10 dots/cell) in immunofluorescence positive cells over the total number of cells in the same field. A minimum of 300 cells from randomly selected fields were scored.

[3] = tested on: PARP, Bcl-2 and Bax; assay: Western blot of apoptosis-related proteins in A549 cells; settings: 24 h
Protocol: as §1

[4] = tested on: A549 cells; assay: Cell apoptosis assay, Annexin V/PI flow cytometry; settings: 24 h
Protocol: (§2) Apoptosis was measured using the Annexin V-FITC apoptosis detection kit (BD Biosciences, San Jose, Calif., USA), according to the manufacturer protocol. Briefly, A549, H358 and PANC-1 cells (1.0×10^5 cells/well) were allowed to attach in a six-well plate for 24 h, cells were treated with deltarasin for 24 h. Subsequently, cells were trypsinized, washed with PBS and stained with 100 μL binding buffer containing 2 μl Annexin-V FITC (2.5 μg/ml) and 5 μl propidium iodide (PI) (50 μg/ml) incubated in the dark at room temperature for 15 min, before further addition of 400 μl of 1×Annexin-binding buffer. The stained cells were analyzed quantitatively using a BD Aria III Flow Cytometer (BD Biosciences, San Jose, Calif., USA). Data were analyzed by Flow Jo software.

[5] = tested on: A549 cells; assay: Cell viability assay (MTT)
Protocol: […] At the end of the incubation, 10 μl of MTT (5 mg/mL, Sigma) were added into each well for 4 h at 37° C., then the crystals were dissolved in 100 μl of the resolved solution (10% SDS and 0.1 mM HCL). The absorbance at 570 nm was measured using a microplate reader (Tecan, Morrisville, N.C., USA). The cell viability was calculated relative to untreated controls. At least 3 independent experiments were performed and the data were plotted as curve graph.

[6] = tested on: intracellular ROS; assay: Detection of ROS production by DCF-DA flow cytometry; settings: PANC-1, A549 and H358 cells, 24 h
Protocol: Intracellular ROS generation was measured by DCF-DA fluorescence probe using flow cytometry. Briefly, A549, H358 and PANC-1 cells (1×10^5 cells/well) were seeded in a six-well plate, and different concentrations of deltarasin were added into the wells. After treatment with deltarasin for 24 h, the treated cells were detached with trypsin, and washed twice with PBS and incubated with 10 μM DCF-DA for 30 min at 37° C. in the dark, the fluorescence-stained cells were then analyzed using a FACS BD Aria III flow cytometer.

[7] = tested on: KRAS; assay: Immunofluorescence of KRAS cellular localization in A549 cells; settings: 5 μM, 24 h
Protocol: Cells were plated on 6-well plates and grown overnight, then treated with 5 μM deltarasin or 5 mM 3-MA for 24 h. Cells were fixed with 4% paraformaldehyde for 20 min at 4° C., followed by permeabilized with 0.2% Triton X-100 in PBS for 10 min. Subsequently, the cells were blocked with 2% BSA/PBS for 30 min at room temperature, then incubated with KRAS antibody (1:100) overnight at 4° C., followed by the secondary antibody (1:500) for 1 h at room temperature. The nuclear was stained with 1 μg/ml Hoechst staining for 10 min in the dark. The cells were visualized using fluorescent microscopy.

[8] = tested on: c-Raf, Akt and ERK phosphorylation; assay: Western blot of KRAS downstream signalling; settings: PANC-1, A549 and H358 cells, 24 h, 0-5 μM
Protocol: as §1

[9] = tested on: GTP-RAS; assay: RAS activation assay (Raf1 RBD pull-down) in A549 cells; settings: 5 μM, 24 h
Protocol: A549 cells were treated with deltarasin for 24 h at 5 μM. Cells were lysed in lysis buffer, adjusted the volume of each sample to 1 ml with 1×Assay Lysis Buffer. Then 40 μl of the Raf1 RBD Agarose bead slurry was swiftly added to each samples. The samples were incubated at 4° C. for 1 h with gentle agitation. The beads were washed 3 times with cold lysis buffer, and bounded protein was resuspended in 40 μl of 2×reducing SDS-PAGE sample buffer and heated at 100° C. for 5 min. The level of […] was detected after SDS-PAGE followed by Western blot.

[10] = tested on: H358 cells; assay: Cell apoptosis assay, Annexin V/PI flow cytometry; settings: 24 h, deltarasin 5 μM, 3-MA 5 mM where co-treated
Protocol: as §2

[11] = tested on: A549 cells; assay: Colony formation assay; settings: 10 days
Protocol: Detailed procedures of colony formation assay were described previously (Franken, N. A., et al., Nature protocols, 2006, 1(5):2315-2319). A549 cells were seeded in a six-well plate at a density of 500 cells per well. The cells were exposed to various concentrations of deltarasin. After 10-14 days, the colonies were fixed with 4% paraformaldehyde and stained with 0.5% (0.5% w/v) crystal violet solutions, the number of colonies were counted under a dissecting microscope.

[12] = tested on: AMPK-mTOR signaling pathway; assay: Western blot of AMPK-mTOR pathway in A549 cells; settings: 0-5 μM, 24 h
Protocol: as §1

[13] = tested on: PANC-1 cells; assay: Cell viability assay (MTT); settings: Homo sapiens, 72 h
Protocol: (§3) 3000 cells were seeded at 96-well plates and cultured overnight for cell adhesion, and treated with DMSO or various concentrations of deltarasin for 72 h. At the end of the incubation, 10 μl of MTT (5 mg/mL, Sigma) were added into each well for 4 h at 37° C., then the crystals were dissolved in 100 μl of the resolved solution (10% SDS and 0.1 mM HCL). The absorbance at 570 nm was measured using a microplate reader (Tecan, Morrisville, N.C., USA). The cell viability was calculated relative to untreated controls. At least 3 independent experiments were performed and the data were plotted as curve graph.

[14] = tested on: H358 cells; assay: Cell viability assay (MTT); settings: Homo sapiens, NCI-H358, 72 h
Protocol: as §3

Cn1cnc(N)c2ncnc1-2 [3-MA, 3-methyladenine]
accumulation of LC3-II induced by deltarasin ([1]; PANC-1, A549 and H358 cells, 5 μM deltarasin plus 5 mM 3-MA): suppressed | number of GFP-LC3 puncta under deltarasin ([2]; 5 μM deltarasin plus 5 mM 3-MA): significantly diminished

CC(=O)N[C@@H](CS)C(=O)O [NAC, N-acetyl cysteine]
PARP cleavage under deltarasin ([3]; 5 μM deltarasin plus 5 μM NAC): suppressed | accumulation of LC3-II under deltarasin ([1]; 5 μM deltarasin plus 5 μM NAC): suppressed | deltarasin-induced apoptosis ([4]; 5 μM deltarasin plus 5 μM NAC): decreases | deltarasin-induced cell cytotoxicity ([5]; 5 μM deltarasin plus 5 μM NAC, 24 h): decreases | high level of ROS induced by deltarasin ([6]; 5 μM deltarasin plus 5 μM NAC): suppressed

c1ccc(Cn2c(-c3ccc(OC[C@H](C4CCNCC4)n4c(-c5ccccc5)nc5ccccc54)cc3)nc3ccccc32)cc1 [deltarasin]
KRAS cellular localization [7]: reduced the amount of KRAS protein at the plasma membrane and displaced KRAS into the cytoplasm | cleavage of PARP ([3]; 5 μM): induction of the cleavage of PARP | expression of anti-apoptotic protein Bcl-2 [3]: reduction | expression of pro-apoptotic protein Bax [3]: increase | conversion of LC3-I to LC3-II ([1]; PANC-1, A549 and H358 cells, 0-5 μM, dose-dependent): distinctly facilitated | c-Raf, Akt and ERK phosphorylation [8]: inhibited | binding of GTP to c-Raf-1 binding domain (KRAS-GTP level) [9]: significantly inhibited | GFP-LC3 puncta formation ([2]; 5 μM, vs untreated control): increased percentage | induction of apoptosis vs untreated cells ([4]; 5 μM): significantly induced apoptosis | cell apoptosis ([4]; deltarasin 5 μM, 3-MA 5 mM where co-treated): 11.25% | cell apoptosis [10]: 15.99% | colony formation capacity ([11]; 0-5 μM): significantly inhibits | colonies formed ([11]; 5 μM): no visible colonies | mTOR and p70S6K phosphorylation [12]: suppressed | p-AMPK level [12]: up-regulation | IC50 ([5]; Homo sapiens, 72 h, MTT): 5.29 ± 0.7 µM | IC50 [13]: 3.86 ± 0.96 µM | IC50 [14]: 4.21 ± 0.72 µM | intracellular ROS levels ([6]; 5 μM): significantly elevated

c1cc(-c2cnn3cc(-c4ccc(OCCN5CCCCC5)cc4)cnc23)ccn1 [compound C]
accumulation of LC3-II under deltarasin ([1]; 5 μM deltarasin plus 5 μM Compound C): suppressed
